Data published in patent US9408385B2, “Pesticidal composition comprising a pyridylethylbenzamide derivative and an insecticide compound” (priority 2006, dated 2016).
Values joined by “and” are separate entries in the source; they are usually repeats but may differ in a detail not shown here. Equal values may be shown once. Read-outs that look alike come from different tables or passages of the source.

Columns and labels:
[1] = system: Phaedon cochleariae larvae; experiment: Efficacy against Phaedon cochleariae larvae, cabbage leaf dip test; conditions: for mortality at 1 ppm: read-out: Mortality in % after 4d, dose 1 ppm
Myzus persicae = experiment: Efficacy against Myzus persicae, cabbage leaf dip test; type: in vivo; conditions: foliar
Source text: (§1) Solvent: 7 parts by weight of dimethylformamide

Aphis gossypii = experiment: Efficacy against Aphis gossypii, cotton leaf dip test; type: in vivo; conditions: foliar, 24 h, after 1 d
Source text: as §1

Gibberella zeae = type: cell-based; conditions: dose 3 ppm; 4 days of incubation, optical density
Phytophthora cryptogea = experiment: Efficacy against Phytophthora cryptogea (Test in vitro - Microtest); conditions: dose 0.03 ppm; 4 days of incubation, optical density
Method: The microtest was performed in liquid medium with potato-dextrose broth (PDB) using microtitre plates.
A mycelium suspension of Phytophthora cryptogea was used for inoculation. After 4 days of incubation by darkness under shaking (10 Hrz), the optical density in each cavity was evaluated with the aid of a microtitre plate reader.

Pyricularia oryzae = type: cell-based; conditions: dose 0.015 ppm; 3 days of incubation
[2] = Phaedon cochleariae, in Brassica oleracea, foliar, 96 h, read-out: Mortality in % after 4d, dose 4 ppm, after 4 d
[3] = Phaedon cochleariae, in Brassica oleracea, foliar, 144 h, read-out: Mortality in % after 6d, dose 4 ppm, after 6 d
[4] = 24 h, after 1 d, read-out: Mortality in % after 1d
[5] = 144 h, after 6 d, read-out: Mortality in % after 6d
[6] = Phaedon cochleariae, in Brassica oleracea, foliar, 96 h, after 4 d
[7] = Phaedon cochleariae, in Brassica oleracea, foliar, 144 h, read-out: Mortality in % after 6d, dose 200 ppm, after 6 d

Compound: 5-fluoro-1,3-dimethyl-N-[2-(1,3-dimethyl)-but-2-ol-yl]-1H-pyrazole-4-carboxamide [Compound A]
- Mortality in % after 4d ([1]; dose 200 ppm, after 4 d): 0%

Compound: CN/C(=N\[N+](=O)[O-])NCc1cnc(Cl)s1 [Clothianidin, clothianidin]
- mortality at 4 ppm [1, 2]: 60%
- mortality at 0.8 ppm ([1]; Phaedon cochleariae, in Brassica oleracea, foliar, 144 h, read-out: Mortality in % after 6d, dose 0.8 ppm, after 6 d): 0%
- mortality at 4 ppm [1, 3]: 20%
- Mortality in % after 6d ([1]; dose 4 ppm, after 6 d): 40%
- mortality at 0.16 ppm (Myzus persicae; [4]): 10%
- mortality at 0.8 ppm (Myzus persicae; [4]): 70%
- mortality at 0.16 ppm (Myzus persicae; [5]): 30%
- mortality at 0.8 ppm (Myzus persicae; [5]): 55%

Compound: O=C(NCCc1ncc(C(F)(F)F)cc1Cl)c1ccccc1C(F)(F)F [Compound 1, N-{2-[3-chloro-5-(trifluoromethyl)-2-pyridinyl]ethyl}-2-trifluoromethylbenzamide]
- mortality at 200 ppm (Aphis gossypii; dose 200 ppm): 10%
- Efficacy in % (Gibberella zeae): 41%
- mortality at 1 ppm [1, 6]: 0%
- mortality at 0.2 ppm ([1]; Phaedon cochleariae, in Brassica oleracea, foliar, 144 h, read-out: Mortality in % after 6d, dose 0.2 ppm, after 6 d): 0%
- mortality at 200 ppm [1, 7]: 0%
- Mortality in % after 4d ([1]; dose 200 ppm, after 4 d): 5% and 15%
- Efficacy in % (Phytophthora cryptogea): 13%
- mortality at 20 ppm (Myzus persicae; 24 h, dose 20 ppm, after 1 d): 0%
- mortality at 200 ppm (Myzus persicae; [4]): 0%
- mortality at 200 ppm (Myzus persicae; [5]): 0%

Compound: Nc1nc(N)nc(NC2CC2)n1 [Cyromazine, cyromazine]
- mortality at 20 ppm ([1]; Phaedon cochleariae, in Brassica oleracea, foliar, 144 h, read-out: Mortality in % after 6d, dose 20 ppm, after 6 d): 5%

Compound: CCOP(=O)(NC(C)C)Oc1ccc(SC)c(C)c1 (stereo not shown) [Fenamifos, fenamifos]
- Mortality in % after 6d ([1]; dose 20 ppm, after 6 d): 75%

Compound: N#Cc1nn(-c2c(Cl)cc(C(F)(F)F)cc2Cl)c(N)c1[S+]([O-])C(F)(F)F (stereo not shown) [Fipronil, fipronil]
- mortality at 100 ppm (Aphis gossypii; dose 100 ppm): 40%

Compound: N#Cc1c[nH]cc1-c1cccc2c1OC(F)(F)O2 [Fludioxonil, fludioxonil]
- mortality at 200 ppm [1, 7]: 5%
- mortality at 200 ppm (Myzus persicae; [4]): 0%

Compound: O=[N+]([O-])NC1=NCCN1Cc1ccc(Cl)nc1 [Imidacloprid, imidacloprid]
- Efficacy in % (Gibberella zeae): 22%
- mortality at 4 ppm [1, 2]: 35%
- mortality at 0.16 ppm (Myzus persicae; [4]): 30%

Compound: CC(C)C1CCC(Cc2ccc(Cl)cc2)C1(O)Cn1cncn1 (stereo not shown) [Ipconazole, ipconazole]
- mortality at 200 ppm (Myzus persicae; [4]): 0%

Compound: OC(Cc1ccccc1Cl)(Cn1nc[nH]c1=S)C1(Cl)CC1 (stereo not shown) [Prothioconazole, prothioconazole]
- Efficacy in % (Pyricularia oryzae): 12%
- mortality at 1 ppm [1, 6]: 0%
- mortality at 200 ppm ([1]; Phaedon cochleariae, in Brassica oleracea, foliar, 96 h, read-out: Mortality in % after 4d, dose 200 ppm, after 4 d): 0%
- mortality at 200 ppm (Myzus persicae; [5]): 0%

Compound: CC1=NNC(=O)N(/N=C/c2cccnc2)C1 [Pymetrozine, pymetrozine]
- mortality at 0.8 ppm (Myzus persicae; [4]): 30%

Compound: CC(C)(C)C(O)(CCc1ccc(Cl)cc1)Cn1cncn1 (stereo not shown) [Tebuconazole, tebuconazole]
- mortality at 200 ppm (Myzus persicae; [5]): 0%

Compound: N#C/N=C1\SCCN1Cc1ccc(Cl)nc1 [Thiacloprid, thiacloprid]
- mortality at 4 ppm [1, 3]: 25%

Compound: CC(C)(C)C(O)C(Oc1ccc(Cl)cc1)n1cncn1 (stereo not shown) [Triadimenol, triadimenol]
- mortality at 0.4 ppm ([1]; Phaedon cochleariae, in Brassica oleracea, foliar, 144 h, read-out: Mortality in % after 6d, dose 0.4 ppm, after 6 d): 0%
- mortality at 200 ppm (Myzus persicae; [4]): 10%

Compound: CON=C(C(=O)OC)c1ccccc1CON=C(C)c1cccc(C(F)(F)F)c1 [Trifloxystrobin, trifloxystrobin]
- mortality at 200 ppm (Myzus persicae; [5]): 20%

Compound: spinosad
- Mortality in % after 4d ([1]; dose 0.8 ppm, after 4 d): 50%
- Efficacy in % (Phytophthora cryptogea): 5%
